# Reference: ChEMBL document CHEMBL4000252, “Discovery of N-(2-aminoethyl)-N-benzyloxyphenyl benzamides: New potent Trypanosoma brucei inhibitors” (Bioorg Med Chem, 2017)
# Columns and labels:
# [1] = tested on: Trypanosoma brucei brucei; assay: Antiparasitic activity against Trypanosoma brucei brucei BF427 assessed as growth inhibition after 48 hrs by Alamar blue assay; format: functional; conditions: BF427, 48 h
# [2] = Cytotoxicity against human CRL8155 cells assessed as growth inhibition after 48 hrs by Alamar blue assay; format: cell-based; conditions: crl8155, 48 h
# HepG2 = assay: Cytotoxicity against human HepG2 cells assessed as growth inhibition after 48 hrs by Alamar blue assay; format: cell-based; conditions: hepg2, 48 h
# Liver [3] = assay: Half life in human liver microsomes at 1.5 uM by LC-MS analysis; format: ADME, microsome
# [4] = Ratio of drug level in brain to plasma in mouse at 5 mg/kg, ip after 1 hr by LC-MS analysis; format: ADME, organism-based
# [5] = Cmax in mouse at 50 mg/kg, po by LC-MS analysis; format: ADME, organism-based; set-up: dose 50 mg/kg, route oral; conditions: in vivo
# [6] = AUC (0 to 8 hrs) in mouse at 50 mg/kg, po by LC-MS analysis; format: ADME, organism-based; set-up: dose 50 mg/kg, time < 8 hr, route oral; conditions: in vivo
# [7] = tested on: Trypanosoma brucei rhodesiense; assay: Antiparasitic activity against Trypanosoma brucei rhodesiense STIB900 infected in Swiss-Webster mouse assessed as cure rate at 50 mg/kg, bid administered via oral gavage from day 2 to 5 post infection measured after 60 days by microscopic method relative to control; format: functional
# Cytochrome P450 3A4 = Cytochrome P450 3A4 (Homo sapiens, UniProt P08684); assay: Inhibition of human CYP3A4; format: ADME
# Liver [8] = assay: Half life in mouse liver microsomes at 1.5 uM by LC-MS analysis; format: ADME, microsome
# Sequence of Cytochrome P450 3A4 (P08684 whole entry): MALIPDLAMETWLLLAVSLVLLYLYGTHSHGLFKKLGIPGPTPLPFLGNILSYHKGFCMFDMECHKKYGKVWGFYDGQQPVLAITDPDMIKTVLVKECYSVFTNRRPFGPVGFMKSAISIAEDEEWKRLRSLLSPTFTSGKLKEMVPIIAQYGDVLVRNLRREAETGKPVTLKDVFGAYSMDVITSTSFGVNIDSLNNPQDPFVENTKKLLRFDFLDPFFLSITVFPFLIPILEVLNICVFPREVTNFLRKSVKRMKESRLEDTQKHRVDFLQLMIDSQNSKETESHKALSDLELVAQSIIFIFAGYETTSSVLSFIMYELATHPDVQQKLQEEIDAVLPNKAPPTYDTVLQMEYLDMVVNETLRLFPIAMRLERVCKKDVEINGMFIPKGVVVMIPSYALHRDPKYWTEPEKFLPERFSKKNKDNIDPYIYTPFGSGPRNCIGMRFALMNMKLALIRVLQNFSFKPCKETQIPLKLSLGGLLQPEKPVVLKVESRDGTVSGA
SMILES,EC50 [1] [µM],CC50 [2] [µM],other results
NCCN(C(=O)c1cccc(F)c1)c1ccc(Cl)cc1,4.03,–,–
CC(C)c1ccc(N(CCN)C(=O)c2ccc(Cl)cc2Cl)cc1,3.89,–,–
NCCN(C(=O)c1ccc(Cl)cc1Cl)c1ccc(OCc2cccc(Cl)c2)cc1,0.043,2.38,CC50 (HepG2): 3.78 µM
NCCN(C(=O)c1ccc(Cl)cc1Cl)c1ccc([N+](=O)[O-])cc1,> 10,–,–
NCCN(C(=O)c1ccc(Cl)cc1Cl)c1ccc(Cl)cc1Cl,0.51,–,–
NC(=O)CCN(C(=O)c1ccc(Cl)cc1Cl)c1ccc(Cl)cc1,> 10,–,–
NCCN(C(=O)c1ccc(Cl)cc1Cl)c1ccc(Oc2ccc(Cl)cc2)cc1,0.17,–,–
NCCN(C(=O)c1cc([N+](=O)[O-])ccc1Cl)c1ccc(Cl)cc1,1.2,–,–
NCCN(C(=O)c1ccc(Cl)cc1Cl)c1cccc(Cl)c1,3.05,–,–
NCCN(C(=O)c1c(Cl)cccc1Cl)c1ccc(Cl)cc1,0.78,> 50,CC50 (HepG2): > 50 µM
NCCN(C(=O)c1ccc(Cl)c([N+](=O)[O-])c1)c1ccc(Cl)cc1,2.9,–,–
Cc1ccccc1C(=O)N(CCN)c1ccc(Cl)cc1,0.52,–,–
NCCN(C(=O)c1ccc(Cl)cc1Cl)c1ccc(Br)cc1,0.33,11.5,CC50 (HepG2): 11 µM
O=C(c1ccc(Cl)cc1Cl)N(c1ccc(Cl)cc1)C1CCNC1 (stereo not given),4.47,–,–
Cc1cc(C)cc(COc2ccc(N(CCN)C(=O)c3ccc(F)cc3C(F)(F)F)cc2)c1,0.005,2.24,CC50 (HepG2): 4.53 µM
NCCN(C(=O)c1ccc(Cl)cc1Cl)c1ccc(N)cc1,> 10,11,–
COc1ccccc1C(=O)N(CCN)c1ccc(Cl)cc1,2.51,–,–
O=C(c1ccc(Cl)cc1Cl)N(Cc1ccco1)c1ccc(Cl)cc1,> 10,–,–
CC(C)(C)c1ccc(COc2ccc(N(CCN)C(=O)c3ccc(Cl)cc3Cl)cc2)cc1,0.005,2.12,CC50 (HepG2): 3.83 µM
CC(=O)NCCN(C(=O)c1ccc(Cl)cc1Cl)c1ccc(Cl)cc1,> 10,–,–
NCCN(C(=O)c1cccnc1C(F)(F)F)c1ccc(Cl)cc1,0.59,–,–
Cc1ccc(C(=O)N(CCN)c2ccc(Cl)cc2)cc1,7,–,–
CC(N)CN(C(=O)c1ccc(Cl)cc1Cl)c1ccc(Cl)cc1 (stereo not given),1.05,–,–
O=C(c1ccc(Cl)cc1Cl)N(c1ccc(Cl)cc1)c1cccnc1,> 10,–,–

SMILES,EC50 [1] [µM],CC50 [2] [µM],other results
NCCN(C(=O)c1ccc(Cl)cc1Cl)c1ccc(F)c(Cl)c1,2.72,–,–
NCCCN(C(=O)c1ccc(Cl)cc1Cl)c1ccc(Cl)cc1,2.9,–,–
NCCN(C(=O)c1cccc(Cl)c1Cl)c1ccc(Cl)cc1,0.31,–,–
CN(C)CCN(C(=O)c1ccc(Cl)cc1Cl)c1ccc(Cl)cc1,> 10,–,–
NCCN(C(=O)c1ccc(Cl)cc1Cl)c1cccc(Oc2ccc(Cl)cc2)c1,2.13,–,–
NCCN(C(=O)c1ccc(Cl)cc1Cl)c1ccc(Cl)c(Cl)c1,1.68,–,–
NCCN(C(=O)c1c(F)c(F)c(F)c(F)c1F)c1ccc(Cl)cc1,0.54,–,–
CC(C)c1ccc(COc2ccc(N(CCN)C(=O)c3ccccc3C(F)(F)F)cc2)cc1,0.003,2.22,CC50 (HepG2): 3.99 µM
NCCN(C(=O)c1cc(Cl)cc(Cl)c1)c1ccc(Cl)cc1,1.08,–,–
NCCN(C(=O)c1ccc(F)cc1F)c1ccc(Cl)cc1,1.24,–,–
NCCN(C(=O)c1cccc(Cl)c1)c1ccc(Cl)cc1,1.2,–,–
NCCN(C(=O)c1ccc(Cl)cc1Cl)c1ccc(-c2ccccc2)cc1,1.83,–,–
Cc1cc(C)cc(COc2ccc(N(CCN)C(=O)c3ccccc3C(F)(F)F)cc2)c1.Cl,0.01,2.94,CC50 (HepG2): 3.94 µM; t1/2 (Liver [3]): > 1 h; BPR [4]: 0.96; Cmax [5]: 1010 nM; AUC(0-t) at 8 h [6]: 6.51 µM·h; Activity [7]: 33%
O=C(c1ccc(Cl)cc1Cl)N(c1ccc(Cl)cc1)C1CCCNC1 (stereo not given),> 10,–,–
O=C(c1ccc(Cl)cc1Cl)N(Cc1cnc[nH]1)c1ccc(Cl)cc1,> 10,–,–
COc1ccc(C(=O)N(CCN)c2ccc(Cl)cc2)cc1,> 10,–,–
NCCN(C(=O)c1cccnc1C(F)(F)F)c1ccc(OCc2ccc(Cl)cc2)cc1,0.003,8.01,CC50 (HepG2): 10.2 µM
NCCN(C(=O)c1ccccc1Cl)c1ccc(Cl)cc1,0.44,> 50,CC50 (HepG2): > 50 µM
NCCN(C(=O)c1ccccc1C(F)(F)F)c1ccc(Cl)cc1,0.33,–,–
NCCN(C(=O)c1cccnc1Cl)c1ccc(OCc2ccc(Cl)cc2)cc1,0.03,11.5,CC50 (HepG2): 15.2 µM
CCc1ccc(COc2ccc(N(CCN)C(=O)c3ccc(Cl)cc3Cl)cc2)cc1,0.015,2.59,CC50 (HepG2): 5.6 µM
NCCN(C(=O)c1ccc(F)cc1)c1ccc(Cl)cc1,4.01,–,–
COc1ccc(C(=O)N(CCN)c2ccc(Cl)cc2)c(OC)c1,4.82,–,–
CC(C)c1ccc(COc2ccc(N(CCN)C(=O)c3ccccc3Br)cc2)cc1,0.001,1.91,–

SMILES,EC50 [1] [µM],CC50 [2] [µM],other results
CC(CN)N(C(=O)c1ccc(Cl)cc1Cl)c1ccc(Cl)cc1 (stereo not given),3.56,–,–
Cc1ccc(C(=O)N(CCN)c2ccc(Cl)cc2)c(C)c1,0.97,–,–
NCCN(C(=O)c1ccccc1)c1ccc(Cl)cc1,13,–,–
Cc1cc(C)cc(COc2ccc(N(CCN)C(=O)c3cccnc3C(F)(F)F)cc2)c1,0.003,4.74,CC50 (HepG2): 6.46 µM
N#CCN(C(=O)c1ccc(Cl)cc1Cl)c1ccc(Cl)cc1,> 10,–,–
O=C(c1ccc(Cl)cc1Cl)N(CCN1CCOCC1)c1ccc(Cl)cc1,> 10,–,–
CC(C)c1ccc(COc2ccc(N(CCN)C(=O)c3ccc(F)cc3C(F)(F)F)cc2)cc1.Cl,0.002,2.83,CC50 (HepG2): 3.66 µM; t1/2 (Liver [3]): 0.867 h; BPR [4]: 0.22; Cmax [5]: 1780 nM; AUC(0-t) at 8 h [6]: 11.1 µM·h; Activity [7]: 33%
NCCN(C(=O)c1ccc(Cl)cc1Cl)c1ccc(Oc2cccc(Cl)c2)cc1,0.28,–,–
NCCN(C(=O)c1cc(Cl)ccc1Cl)c1ccc(Cl)cc1,0.6,–,–
Cl.NCCN(C(=O)c1ccc(Cl)cc1Cl)c1ccc(F)cc1,–,30,CC50 (HepG2): 40 µM; IC50 (Cytochrome P450 3A4): 0.074 µM; t1/2 (Liver [8]): > 1 h
NCCN(C(=O)c1ccc(Cl)cc1Cl)c1ccc(Cl)cc1,0.31,12.5,CC50 (HepG2): 14.2 µM; IC50 (Cytochrome P450 3A4): 0.07 µM
CC(C)c1ccc(COc2ccc(N(CCN)C(=O)c3ccccc3[N+](=O)[O-])cc2)cc1,0.001,3.03,–
NCCN(C(=O)c1c(Cl)cc(Cl)cc1Cl)c1ccc(Cl)cc1,0.23,8.5,CC50 (HepG2): 21.5 µM
NCCN(C(=O)c1ccc(F)cc1C(F)(F)F)c1ccc(Cl)cc1,0.18,42.3,CC50 (HepG2): 37.7 µM
NCCN(C(=O)c1ccc(Cl)cc1Cl)c1ccc(Oc2ccccc2Cl)cc1,3.6,–,–
O=C(c1ccc(Cl)cc1Cl)N(CCO)c1ccc(Cl)cc1,> 10,–,–
Cc1ccc(N(CCN)C(=O)c2ccc(Cl)cc2Cl)cc1,1.52,24.9,–
O=C(c1ccc(Cl)cc1Cl)N(Cc1ncc[nH]1)c1ccc(Cl)cc1,> 10,–,–
COc1cc(N(CCN)C(=O)c2ccc(Cl)cc2Cl)ccc1Cl,4.52,–,–
NCCN(C(=O)c1ccc(Cl)cc1)c1ccc(Cl)cc1,3.12,–,–
CNCCN(C(=O)c1ccc(Cl)cc1Cl)c1ccc(Cl)cc1,1.65,–,–
O=C(c1ccc(Cl)cc1Cl)N(Cc1cccs1)c1ccc(Cl)cc1,> 10,–,–
